# Laboratory results taken from patent US20230065014A1, “Nitro-Fatty Acid-Containing Microbubbles and Uses Therefor” (University of Pittsburgh-Of the Commonwealth System of …, priority 2020, published 2023).
# What was measured:
# [1] = molecular target: T1, PPAR-γ (peroxisome proliferator activated receptor gamma) (Homo sapiens, UniProt P37231); settings: as described in WO 2010/014889 A2; cited from earlier work
# T1 sequence (P37231 1-505): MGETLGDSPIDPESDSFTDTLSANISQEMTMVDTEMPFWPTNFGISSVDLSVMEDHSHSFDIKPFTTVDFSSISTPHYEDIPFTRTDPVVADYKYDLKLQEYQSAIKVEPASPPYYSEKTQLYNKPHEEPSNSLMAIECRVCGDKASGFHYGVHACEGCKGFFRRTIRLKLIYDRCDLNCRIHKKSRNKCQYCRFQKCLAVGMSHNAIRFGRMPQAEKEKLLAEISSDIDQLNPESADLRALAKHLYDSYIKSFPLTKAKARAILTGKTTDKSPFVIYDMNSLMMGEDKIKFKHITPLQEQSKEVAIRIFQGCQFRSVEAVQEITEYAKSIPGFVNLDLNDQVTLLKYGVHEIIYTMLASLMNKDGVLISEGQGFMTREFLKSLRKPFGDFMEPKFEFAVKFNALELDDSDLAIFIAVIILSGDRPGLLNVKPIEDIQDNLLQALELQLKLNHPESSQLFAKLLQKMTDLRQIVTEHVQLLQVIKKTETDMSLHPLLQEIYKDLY
# [2] = tested on: long-term NASH diet-induced liver damage; settings: NASH diet mice; cited from earlier work
# [3] = tested on: Bleomycin-treated 3 mo old C57Bl6 mice; test: Reversal of established fibrosis in bleomycin-treated mice; type: in vivo; settings: 7.5 mg/kg oral, 2 additional weeks
# Excerpt: Nitroalkenes can reverse established fibrosis.
# [4] = tested on: human stellate cells; settings: in vitro; cited from earlier work
# [5] = tested on: fibrotic vascular and tissue remodeling in heart, liver and lung; settings: Ang II, hypoxia and obesity models; cited from earlier work
# [6] = tested on: hepatocytes; settings: in vitro; cited from earlier work
compound,measurement,setting,value
"CCCCCC=CC/C(=C\CCCCCCCC(=O)O)[N+](=O)[O-] (stereo in doubt) [10-nitro linoleic acid, (9E,12Z)-10-nitrooctadeca-9,12-dienoic acid]",activation of the PPAR-γ receptor,[1],"potent, selective activators"
"CCCCC/C=C(\C/C=C\CCCCCCCC(=O)O)[N+](=O)[O-] [12-nitro linoleic acid, 12-nitrolinoleic acid]",activation of the PPAR-γ receptor,[1],"potent, selective activators"
NO2-oleic acid,RNA-sequencing analysis of liver tissue,[2],inflammation and fibrosis as major pathways suppressed
same,SREBPI proteolytic activation and subsequent lipogenesis gene expression,[2],inhibition of SREBPI proteolytic activation and subsequent lipogenesis gene expression
same,body composition and energy metabolism (CLAMS and NMR-based analysis),[2],improved body composition and energy metabolism
same,hepatic triglyceride (TG) accumulation,[2],inhibiting hepatic triglyceride (TG) accumulation
same,liver steatosis and fibrosis by photoacoustic-ultrasound imaging,[2],robust inhibition of liver steatosis and fibrosis
same,Ashcroft scoring,[3],decreased collagen deposition
same,Masson's trichrome and αSMA staining,[3],resolution of pathologic remodeling
same,"qRT-PCR of TGFβ, Col1A1, αSMA, vimentin, MMP7 and E-cadherin expression",[3],inhibition of these pro-fibrotic indices
same,reversal of fibrosis,[3],significant reversal of fibrosis
same,fibrogenesis,[4],inhibited fibrogenesis
same,activation of the PPAR-γ receptor,[1],nanomolar activators
same,fibrotic vascular and tissue remodeling,[5],inhibit fibrotic vascular and tissue remodeling
same,TG biosynthesis and accumulation,[6],inhibited TG biosynthesis and accumulation
Nitro-linoleic acid,activation of the PPAR-γ receptor,[1],nanomolar activators
same,fibrotic vascular and tissue remodeling,[5],inhibit fibrotic vascular and tissue remodeling
